Drawing on PMC11565396 (Journal of Lipid Research, 2024), this text covers Kd for three compounds.

The structures appear in SMILES notation. Like-named read-outs stand apart in the source and are kept apart here.

The experiment concerns the target EBOV VP40 (6xHis-VP40) (Ebola virus - Mayinga, Zaire, 1976, UniProt Q05128). In words: biochemical. It is filed as binding.

Sequence of EBOV VP40 (6xHis-VP40) (Q05128 whole entry, looked up): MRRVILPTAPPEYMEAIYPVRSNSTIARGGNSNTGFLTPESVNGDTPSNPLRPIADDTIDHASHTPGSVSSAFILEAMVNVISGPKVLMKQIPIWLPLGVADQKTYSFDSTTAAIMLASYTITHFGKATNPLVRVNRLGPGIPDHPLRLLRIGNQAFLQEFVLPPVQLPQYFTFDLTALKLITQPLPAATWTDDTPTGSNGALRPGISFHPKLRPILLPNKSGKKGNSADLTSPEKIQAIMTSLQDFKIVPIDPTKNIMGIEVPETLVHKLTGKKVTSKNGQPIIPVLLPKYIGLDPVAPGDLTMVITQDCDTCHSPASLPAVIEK

Turning to `CCCCCCCC/C=C\CCCCCCCC(=O)OC[C@H](COP(=O)(O)OC[C@H](N)C(=O)O)OC(=O)CCCCCCC/C=C\CCCCCCCC` [DOPS], the Kd (read-out: Kd (apparent)) is 0.311 µM.
For the compound `CCCCCCCCCCCCCCCC(=O)OCC(COP(=O)(O)OC[C@H](N)C(=O)O)OC(=O)CCCCCCCCCCCCCCC` (stereo partly drawn) [DPPS], for the setting “read-out: Kd (apparent)”, the Kd turned out to be 0.01 µM.
Compound `CCCCCCCC/C=C\CCCCCCCC(=O)O[C@H](COC(=O)CCCCCCCCCCCCCCC)COP(=O)(O)OC[C@H](N)C(=O)O` [POPS] showed a Kd of 0.186 µM.
